Data published in publication PMC7093416, “Selective USP7 inhibition elicits cancer cell killing through a p53-dependent mechanism” (Scientific Reports, 2020).
“And” between values parts separate entries of the source, which are not always exact repeats. Identical values can stand only once.

Tested on: panel of 484 cancer cell lines
Assay: PRISM cancer cell line profiling, 5 days
Assay type: cell-based
Design: Viability: scale not given here; AUC: unit not given beside the values
Experimental: Cancer cell line profiling was performed using the Broad’s PRISM platform. Cell treatment and data analysis were performed as described in Yu et al[42]. Raw Luminex signal was converted to AUC values for each cell line as described. The resulting AUC profile for each compound was modeled against DepMap using the limma package in R[71]. Because hotspot mutation analysis was performed against DepMap, TP53 annotations in Fig. 6c,d are directly from DepMap.

[1] = CAL12T_LUNG, pert_dose 6.10E-04
[2] = CAL27_UPPER_AERODIGESTIVE_TRACT, pert_dose 6.10E-04
[3] = CAL29_URINARY_TRACT, pert_dose 6.10E-04

COc1ccc(C2=N[C@@H](c3ccc(Cl)cc3)[C@@H](c3ccc(Cl)cc3)N2C(=O)N2CCNC(=O)C2)c(OC(C)C)c1 [Nutlin-3A]
Viability (CAKI1_KIDNEY, pert_dose 6.10E-04): 1.281
AUC (CAL12T_LUNG): 1.284
MFI CAL12T_LUNG [1]: 11558 and 13284 and 9249.5 and 12951.5 and 13183
Viability [1]: 1.338
AUC (CAL27_UPPER_AERODIGESTIVE_TRACT): 1.085
MFI CAL27_UPPER_AERODIGESTIVE_TRACT [2]: 20059.5 and 19151.5 and 25415 and 19627.5 and 22725.5
Viability [2]: 1.031
AUC (CAL29_URINARY_TRACT): 1.177
MFI CAL29_URINARY_TRACT [3]: 9011 and 8957 and 10277.5 and 8231.5 and 10904
Viability [3]: 1.551
AUC (CAL51_BREAST): 1.0736
MFI CAL51_BREAST (CAL51_BREAST, pert_dose 6.10E-04): 12828 and 10989 and 10227 and 16366 and 8548.5
AUC (CAL54_KIDNEY): 1.148
Viability (CAL54_KIDNEY, pert_dose 6.10E-04): 1.061
AUC (CAL62_THYROID): 1.139
MFI CAL62_THYROID (CAL62_THYROID, pert_dose 6.10E-04): 19352 and 23281.5 and 23347 and 21690 and 18079
AUC (CAL78_BONE): 1.142
AUC (CAL120_BREAST): 1.092
MFI CAL120_BREAST (CAL120_BREAST, pert_dose 6.10E-04): 15064 and 12880 and 13041 and 15017 and 12012.5
AUC (CALU1_LUNG): 0.9872
AUC (CALU6_LUNG): 1.11
MFI CALU6_LUNG (CALU6_LUNG, pert_dose 6.10E-04): 19804 and 26726 and 21267 and 25781.5 and 28928.5
AUC (CAMA1_BREAST): 1.153
MFI CAMA1_BREAST (CAMA1_BREAST, pert_dose 6.10E-04): 1412 and 1959.5 and 1768 and 1670.5 and 1819.5
AUC (CAOV3_OVARY): 1.212
MFI CAOV3_OVARY (CAOV3_OVARY, pert_dose 6.10E-04): 4238 and 2774 and 4113 and 2696.5 and 4069
AUC (CAPAN2_PANCREAS): 1.279
AUC (CCFSTTG1_CENTRAL_NERVOUS_SYSTEM): 0.9997
MFI CCFSTTG1_CENTRAL_NERVOUS_SYSTEM (CCFSTTG1_CENTRAL_NERVOUS_SYSTEM, pert_dose 6.10E-04): 2625 and 1957.5 and 2163 and 2860 and 1678.5
AUC (CFPAC1_PANCREAS): 1.133
MFI CFPAC1_PANCREAS (CFPAC1_PANCREAS, pert_dose 6.10E-04): 12988 and 12890.5 and 8831 and 16982.5 and 13585.5
AUC (CHL1_SKIN): 1.101
MFI CHL1_SKIN (CHL1_SKIN, pert_dose 6.10E-04): 25277 and 22527.5 and 16250 and 20018.5 and 22530
AUC (CJM_SKIN): 1.181
MFI CJM_SKIN (CJM_SKIN, pert_dose 6.10E-04): 9757.5 and 5484 and 9139.5 and 7090.5 and 8423
AUC (CL34_LARGE_INTESTINE): 1.025
MFI CL34_LARGE_INTESTINE (CL34_LARGE_INTESTINE, pert_dose 6.10E-04): 3669 and 4269 and 5343.5 and 2751 and 2702
AUC (COLO668_LUNG): 1.1
AUC (COLO679_SKIN): 0.88
MFI COLO679_SKIN (COLO679_SKIN, pert_dose 6.10E-04): 6568.5 and 8262 and 8427 and 10413 and 7461
AUC (COLO680N_OESOPHAGUS): 1.159
MFI COLO680N_OESOPHAGUS (COLO680N_OESOPHAGUS, pert_dose 6.10E-04): 5933.5 and 4468 and 6131 and 5620 and 4657
AUC (COLO741_SKIN): 1.078
MFI COLO741_SKIN (COLO741_SKIN, pert_dose 6.10E-04): 3302 and 2497 and 3485 and 3755 and 2923
AUC (COLO783_SKIN): 1.125
MFI COLO783_SKIN (COLO783_SKIN, pert_dose 6.10E-04): 9292.5 and 11134.5 and 11660 and 10125 and 10684
AUC (COLO792_SKIN): 0.8537
MFI COLO792_SKIN (COLO792_SKIN, pert_dose 6.10E-04): 5216 and 3883.5 and 6906 and 3698 and 6181
AUC (COLO800_SKIN): 0.9456
MFI COLO800_SKIN (COLO800_SKIN, pert_dose 6.10E-04): 9562 and 9966.5 and 9539 and 8965 and 10824
AUC (CORL23_LUNG): 1.082
MFI CORL23_LUNG (CORL23_LUNG, pert_dose 6.10E-04): 18251 and 21912.5 and 23721 and 22738.5 and 19507.5
AUC (CORL105_LUNG): 0.9293
MFI CORL105_LUNG (CORL105_LUNG, pert_dose 6.10E-04): 3831.5 and 2259.5 and 3159 and 2363.5 and 2088.5
AUC (COV362_OVARY): 1.112
MFI COV362_OVARY (COV362_OVARY, pert_dose 6.10E-04): 17061 and 16771 and 18006 and 14276 and 17716.5
AUC (COV434_OVARY): 0.499
MFI COV434_OVARY (COV434_OVARY, pert_dose 6.10E-04): 2287 and 4116 and 4254.5 and 3247 and 3013
AUC (DANG_PANCREAS): 1.183
MFI DANG_PANCREAS (DANG_PANCREAS, pert_dose 6.10E-04): 3936.5 and 2389 and 3329.5 and 4098 and 2374
AUC (DAOY_CENTRAL_NERVOUS_SYSTEM): 1.063
MFI DAOY_CENTRAL_NERVOUS_SYSTEM (DAOY_CENTRAL_NERVOUS_SYSTEM, pert_dose 6.10E-04): 3341 and 3770 and 5391 and 3660 and 5169
AUC (DBTRG05MG_CENTRAL_NERVOUS_SYSTEM): 0.8565
MFI DBTRG05MG_CENTRAL_NERVOUS_SYSTEM (DBTRG05MG_CENTRAL_NERVOUS_SYSTEM, pert_dose 6.10E-04): 9502 and 12025.5 and 11037.5 and 11248 and 13043
AUC (DETROIT562_UPPER_AERODIGESTIVE_TRACT): 1.165
MFI DETROIT562_UPPER_AERODIGESTIVE_TRACT (DETROIT562_UPPER_AERODIGESTIVE_TRACT, pert_dose 6.10E-04): 11765 and 10497.5 and 16246.5 and 13989 and 13619
AUC (DKMG_CENTRAL_NERVOUS_SYSTEM): 0.8274
AUC (DMS273_LUNG): 1.073
MFI DMS273_LUNG (DMS273_LUNG, pert_dose 6.10E-04): 11114.5 and 10196.5 and 9771 and 10022 and 13797
AUC (DU145_PROSTATE): 1.079
MFI DU145_PROSTATE (DU145_PROSTATE, pert_dose 6.10E-04): 21126.5 and 23687 and 17071 and 16938.5 and 18848
AUC (DV90_LUNG): 0.8353
MFI DV90_LUNG (DV90_LUNG, pert_dose 6.10E-04): 7893 and 6981 and 9620.5 and 7167 and 6096.5
∆ (AUC, TP53 mutation vs WT; decreased sensitivity) (DepMap TP53 mutation annotation): 0.0919
AUC (EBC1_LUNG): 1.0742
MFI EBC1_LUNG (EBC1_LUNG, pert_dose 6.10E-04): 12931 and 11768 and 13134.5 and 11101.5 and 10612
AUC (ECGI10_OESOPHAGUS): 1.177
AUC (EFM192A_BREAST): 1.203
AUC (EFO21_OVARY): 1.106
MFI EFO21_OVARY (EFO21_OVARY, pert_dose 6.10E-04): 6907 and 7302 and 6854 and 7260 and 4429
AUC (EFO27_OVARY): 1.1574
MFI EFO27_OVARY (EFO27_OVARY, pert_dose 6.10E-04): 9100.5 and 10537 and 7873 and 14276 and 9706
AUC (EN_ENDOMETRIUM): 1.075
AUC (ES2_OVARY): 1.089
MFI ES2_OVARY (ES2_OVARY, pert_dose 6.10E-04): 18459 and 23432 and 12997.5 and 16216 and 13403
AUC (ESS1_ENDOMETRIUM): 1.129
MFI ESS1_ENDOMETRIUM (ESS1_ENDOMETRIUM, pert_dose 6.10E-04): 2916 and 2399 and 2841.5 and 2277 and 1505
AUC (EWS502_BONE): 1.109
MFI EWS502_BONE (EWS502_BONE, pert_dose 6.10E-04): 3099 and 3510.5 and 2209 and 3124 and 3278.5
AUC (FADU_UPPER_AERODIGESTIVE_TRACT): 1.169
MFI FADU_UPPER_AERODIGESTIVE_TRACT (FADU_UPPER_AERODIGESTIVE_TRACT, pert_dose 6.10E-04): 3959.5 and 4203 and 5203 and 4740.5 and 7313
AUC (FTC133_THYROID): 1.156
